Measured values reported in patent EP2599480A1 (priority 2011, dated 2013).
Like-named read-outs stand apart in the source and are kept apart here.

Experiments:
[1] = biological target: NA of influenza virus A/PR/8/34 (Influenza A virus, UniProt P03468); assay: biochemical; parameters: species or system H1N1 influenza virus A/Puerto Rico/8/34
in vitro = conditions: dog; for CC50 at 72 h: mdck
[2] = system: NA of influenza virus A/Jena/5555/09; format: biochemical, clinical H1N1 isolate A/Jena/5555/09
[3] = system: NA of influenza virus A/Jena/5528/09; format: biochemical, clinical H1N1 isolate A/Jena/5528/09

Chain of NA of influenza virus A/PR/8/34 (P03468 whole entry, looked up): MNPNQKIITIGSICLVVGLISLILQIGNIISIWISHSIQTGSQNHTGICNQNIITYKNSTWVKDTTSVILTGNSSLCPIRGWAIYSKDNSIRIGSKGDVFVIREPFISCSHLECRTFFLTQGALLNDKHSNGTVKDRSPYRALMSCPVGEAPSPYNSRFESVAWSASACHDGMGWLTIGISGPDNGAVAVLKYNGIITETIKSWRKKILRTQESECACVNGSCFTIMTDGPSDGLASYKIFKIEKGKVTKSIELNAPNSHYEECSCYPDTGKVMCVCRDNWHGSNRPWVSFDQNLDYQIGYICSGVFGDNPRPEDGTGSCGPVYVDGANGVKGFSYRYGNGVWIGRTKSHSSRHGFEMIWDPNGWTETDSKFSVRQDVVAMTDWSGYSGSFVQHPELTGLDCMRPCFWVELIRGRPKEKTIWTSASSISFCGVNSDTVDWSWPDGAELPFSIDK

SMILES	CC50 at 72 h (in vitro)	further results
Cc1ccc(S(=O)(=O)Oc2cc(S(=O)(=O)O)cc3cc(S(=O)(=O)O)cc(N)c23)cc1 [NCI compound 16168]	–	IC50 ([1]; IC50 for A/PR/8/34): 5.91 µM; CC50 (in vitro): > 100 µM
O=C(Nc1cc(S(=O)(=O)O)cc2cc(S(=O)(=O)O)cc(O)c12)c1ccccc1 [NCI compound 16169]	–	CC50 (in vitro): > 100 µM
Nc1c(N=Nc2ccc(S(=O)(=O)Nc3ccccn3)cc2)cc(S(=O)(=O)O)c2ccccc12 [NCI compound 30456]	–	IC50 [1]: < 0.12 µM
Nc1c(N=Nc2ccc(S(=O)(=O)Nc3nccs3)cc2)cc(S(=O)(=O)O)c2ccccc12 [NCI compound 31348]	> 100 µM	–
O=C(Nc1cc(S(=O)(=O)O)cc2cc(S(=O)(=O)O)ccc12)c1ccccc1 [NCI compound 37172]	–	CC50 (in vitro): > 100 µM
Nc1ccc(C(=O)Nc2cc(S(=O)(=O)O)cc3cccc(O)c23)cc1 [NCI compound 37176]	–	CC50 (in vitro): > 100 µM
Nc1ccc(C(=O)Nc2cc(S(=O)(=O)O)cc3cc(S(=O)(=O)O)ccc23)cc1 [NCI compound 37180]	–	CC50 (in vitro): > 100 µM
CN(C)c1ccc(C=Nc2cc(S(=O)(=O)O)cc3cc(S(=O)(=O)O)cc(O)c23)cc1 [NCI compound 37200]	> 100 µM	IC50 [2]: 0.94 µM; IC50 [3]: 1.18 µM
CCOc1ccc(N=Nc2ccc(C=Nc3ccc4c(O)cc(S(=O)(=O)O)cc4c3)cc2)cc1 [NCI compound 37220]	> 100 µM	IC50 ([1]; IC50 for A/PR/8/34): 0.42 µM
Nc1ccc(C(=O)Nc2ccc(S(=O)(=O)O)c3cccc(O)c23)cc1 [NCI compound 37609]	> 100 µM	–
O=[N+]([O-])c1ccc(N=Nc2c(O)ccc3cc(S(=O)(=O)O)ccc23)cc1 [NCI compound 45538]	> 100 µM	–
O=[N+]([O-])c1ccc(N=Nc2c(O)ccc3cc(S(=O)(=O)O)cc(S(=O)(=O)O)c23)cc1 [NCI compound 45539]	> 100 µM	–
O=[N+]([O-])c1ccc(N=Nc2c(O)c(S(=O)(=O)O)cc3cc(S(=O)(=O)O)ccc23)cc1 [NCI compound 45540]	> 100 µM	–
O=[N+]([O-])c1cccc(N=Nc2c(O)c(S(=O)(=O)O)cc3cc(S(=O)(=O)O)ccc23)c1 [NCI compound 45541]	> 100 µM	–
O=S(=O)(O)c1cc2cccc(S(=O)(=O)O)c2c(O)c1N=Nc1ccccc1 [NCI compound 45549]	> 100 µM	IC50 ([1]; IC50 for A/PR/8/34): 4.85 µM
O=S(=O)(O)c1ccc2c(N=Nc3ccc(N=Nc4ccccc4)cc3)c(O)ccc2c1 [NCI compound 65545]	> 100 µM	IC50 [2]: 0.24 µM; IC50 [3]: 0.11 µM
Cc1cc(S(=O)(=O)O)ccc1N=Nc1ccc(N=Nc2c(O)ccc3ccccc23)c(C)c1 [NCI compound 66221]	–	IC50 ([1]; IC50 for A/PR/8/34): 0.29 µM

SMILES	CC50 at 72 h (in vitro)	further results
CC(=O)Nc1cc(S(=O)(=O)O)cc2cc(S(=O)(=O)O)cc(O)c12 [NCI compound 74489]	> 100 µM	–
O=S(=O)(O)c1ccc2cc(N=Nc3cc(S(=O)(=O)O)c4cccnc4c3O)ccc2c1 [NCI compound 87877]	> 100 µM	IC50 [2]: 1.55 µM; IC50 [3]: 1.74 µM
CCCCCC(=O)Nc1cc(S(=O)(=O)O)cc2cc(S(=O)(=O)O)cc(O)c12 [NCI compound 97290]	> 100 µM	–
Cc1nnc(NS(=O)(=O)c2ccc(N=Nc3c(O)c(C(=O)O)cc4ccccc34)cc2)s1 [NCI compound 134131]	> 100 µM	–
CC1NOC(NS(=O)(=O)c2ccc(N=Nc3c(O)c(C(=O)O)cc4ccccc34)cc2)C1C (centres unmarked) [NCI compound 134132]	–	IC50 ([1]; read-out: IC50 for A/PR/8/34): 0.64 µM
Cc1cccc(NS(=O)(=O)c2ccc(N=Nc3c(O)c(C(=O)O)cc4ccccc34)cc2)n1 [NCI compound 134133]	–	IC50 [1]: < 0.12 µM
O=C(O)c1cc2ccccc2c(N=Nc2ccc(S(=O)(=O)Nc3ccccn3)cc2)c1O [NCI compound 134134]	–	IC50 ([1]; IC50 for A/PR/8/34): 0.45 µM
O=C(O)c1cc2ccccc2c(N=Nc2ccc(S(=O)(=O)Nc3nccs3)cc2)c1O [NCI compound 134135]	> 100 µM	IC50 [2]: 0.31 µM; IC50 [3]: 0.24 µM
O=C(O)c1cc2ccccc2c(N=Nc2ccc(S(=O)(=O)Nc3ncccn3)cc2)c1O [NCI compound 134136]	> 100 µM	–
O=C(O)c1cc2ccccc2c(N=Nc2ccc(S(=O)(=O)O)cc2)c1O [NCI compound 134138]	> 100 µM	IC50 [2]: 2.9 µM; IC50 [3]: 3.06 µM
N=C(N)NS(=O)(=O)c1ccc(N=Nc2c(O)c(C(=O)O)cc3ccccc23)cc1 [NCI compound 134139]	> 100 µM	–
Cc1cc(NS(=O)(=O)c2ccc(N=Nc3c(O)c(C(=O)O)cc4ccccc34)cc2)nc(C)n1 [NCI compound 134140]	> 100 µM	–
Cc1ccc(N=Nc2c(O)c(C(=O)O)cc3ccccc23)cc1C [NCI compound 134141]	> 100 µM	–
O=C(O)c1c(O)c(N=Nc2ccc(S(=O)(=O)Nc3ccccn3)cc2)cc2ccccc12 [NCI compound 134145]	> 100 µM	–
Nc1cc(S(=O)(=O)O)cc2cc(S(=O)(=O)O)c(N=Nc3cc(S(=O)(=O)O)cc4cc(S(=O)(=O)O)cc(O)c34)c(O)c12 [NCI compound 162530]	> 100 µM	–
O=C(O)c1cc(C(=O)CCCC(=O)c2cc(C(=O)O)c(O)c3ccccc23)c2ccccc2c1O [NCI compound 292216]	> 100 µM	–
Cc1ccc(Nc2nnc(CSc3ccc(Cl)cc3)s2)c(S(=O)(=O)O)c1 [NCI compound 369693]	> 100 µM	–
